Results: ChEMBL document CHEMBL5543172, “Novel Isoalantolactone-Based Derivatives as Potent NLRP3 Inflammasome Inhibitors: Design, Synthesis, and Biological Characterization” (J Med Chem, 2024)
Active and inactive are the calls of the source. The calls are words filed in the database; no cut-off is given here.

What was measured:
[1] = AUC (0 to t) in male C57BL/6 mouse at 30 mg/kg, ip measured upto 1440 mins by LC-MS/MS analysis; assay type: ADME, organism-based; conditions: in vivo
THP-1 [2] = assay: Inhibition of pyroptosis in LPS/nigericin induced PMA-differentiated human THP-1 cells assessed as reduction in red fluorescence production preincubated with LPS for 3 hrs followed by compound addition for 40 mins and further stimulated with nigericin for 40 mins by PI staining based inverted microscopy based analysis; assay type: functional, cell-based; conditions: dose 0.25-1 µM, time 80.0 min
THP-1 [3] = assay: Binding affinity to NLRP3deltaLRR mutant in PMA- differentiated human THP-1 cells assessed as increase in thermal stability of protein at 1 uM pretreated with LPS for 3 hrs followed by compound addition at 45 to 63 degC for 2 mins by CETSA analysis; assay type: cell-based
[4] = molecular target: Adenosine receptor A2a (Homo sapiens) (UniProt P29274); assay: Activation of adenosine A2A receptor (unknown origin) at 1 uM relative to control
THP-1 [5] = assay: Cytotoxicity against human THP-1 cells at 0.25 to 2 uM measured after 24 hrs by CCK-8 method; assay type: functional, cell-based; conditions: dose 0.25-2 µM
[6] = molecular target: Sodium-dependent serotonin transporter (Homo sapiens) (UniProt P31645); assay: Inhibition of 5-HTT (unknown origin) at 1 uM relative to control
Mus musculus [7] = assay: Anti-colitis activity against DSS-induced ulcerative colitis C57BL/6 mouse model assessed as alleviation of reduced crypt count at 15 to 30 mg/kg, ip administered daily and measured after 10 days by H and E staining based analysis; assay type: functional, organism-based; conditions: dose 15-30 mg/kg, time 10.0 day
Homo sapiens [8] = organism: Homo sapiens; assay: Inhibition of GlyRalpha1beta (unknown origin) at 1 uM relative to control
[9] = Drug distribution in C57BL/6 mouse plasma at 30 mg/kg, ip measured after 8 hrs by LC-MS/MS analysis; assay type: ADME, organism-based
[10] = molecular target: NACHT, LRR and PYD domains-containing protein 3 (Mus musculus) (UniProt Q8R4B8); assay: Inhibition of NLRP3 inflammasome activation in LPS/Nigericin induced mouse BMDM cells assessed as effect on pro-casapase-1 expression at 0.25 to 1 uM preincubated with LPS for 3 hrs followed by compound addition for 40 mins and further stimulated with nigericin for 40 mins by Western blot analysis; assay type: cell-based; conditions: dose 0.25-1 µM, time 80.0 min
[11] = molecular target: Prostaglandin G/H synthase 2 (Homo sapiens) (UniProt P35354); assay: Activation of COX2 (unknown origin) at 1 uM relative to control
[12] = Drug distribution in C57BL/6 mouse colon at 30 mg/kg, ip measured after 0.5 hrs by LC-MS/MS analysis; assay type: ADME, organism-based; conditions: read-out: Drug uptake
HEK293T = assay: Inhibition of HA-NLRP3 C279A mutant/FLAG tagged NEK7 interaction (unknown origin) transfected in HEK293T cells at 1 uM incubated for 24 hrs by Western blot analysis; assay type: cell-based; conditions: Homo sapiens
BMDM [13] = assay: Inhibition of pyroptosis in LPS/nigericin induced […] cells assessed as reduction in red fluorescence production preincubated with LPS for 3 hrs followed by compound addition for 40 mins and further stimulated with nigericin for 40 mins by PI staining based inverted microscopy based analysis; assay type: functional, cell-based; conditions: dose 0.25-1 µM, time 80.0 min
[14] = molecular target: NACHT, LRR and PYD domains-containing protein 3 (Mus musculus) (UniProt Q8R4B8); assay: Inhibition of NLRP3 inflammasome activation in LPS/nigericin induced mouse BMDM cells assessed as reduction in GSDMD-N expression at 0.25 to 1 uM preincubated with LPS for 3 hrs followed by compound addition for 40 mins and further stimulated with nigericin for 40 mins by Western blot analysis; assay type: cell-based; conditions: dose 0.25-1 µM, time 80.0 min
[15] = molecular target: Sodium-dependent serotonin transporter (Homo sapiens) (UniProt P31645); assay: Activation of 5-HTT (unknown origin) at 1 uM relative to control
[16] = Drug distribution in C57BL/6 mouse colon at 30 mg/kg, ip measured after 2 hrs by LC-MS/MS analysis; assay type: ADME, organism-based; conditions: read-out: Drug uptake
[17] = MRT (0 to t) in male C57BL/6 mouse at 30 mg/kg, ip measured upto 1440 mins by LC-MS/MS analysis; assay type: ADME, organism-based; conditions: in vivo
[18] = Cytotoxicity against human PBMC cells at 0.08 to 0.63 uM measured after 24 hrs by CCK-8 method; assay type: toxicity, cell-based; conditions: dose 0.08-0.63 µM
Homo sapiens [19] = organism: Homo sapiens; assay: Activation of GlyRalpha1beta (unknown origin) at 1 uM relative to control
[20] = molecular target: Prostaglandin G/H synthase 2 (Homo sapiens) (UniProt P35354); assay: Inhibition of COX2 (unknown origin) at 1 uM relative to control
[21] = molecular target: NACHT, LRR and PYD domains-containing protein 3 (Mus musculus) (UniProt Q8R4B8); assay: Inhibition of NLRP3 inflammasome activation in LPS/Nigericin induced mouse BMDM cells assessed as suppression of IL-1beta secretion preincubated with LPS for 3 hrs followed by compound addition for 40 mins and further stimulated with nigericin for 40 mins by Western blot analysis; assay type: cell-based; conditions: dose 0.25-1 µM, time 80.0 min
BMDM [22] = assay: Cytotoxicity against mouse BMDM cells at 0.25 to 2 uM measured after 24 hrs by CCK-8 method; assay type: toxicity, cell-based; conditions: dose 0.25-2 µM
[23] = molecular target: NACHT, LRR and PYD domains-containing protein 3 (Mus musculus, UniProt Q8R4B8); assay: Inhibition of NLRP3 inflammasome activation in LPS-activated mouse BMDM cells assessed as inhibition of nigericin induced IL-1beta secretion preincubated with LPS for 3 hrs followed by compound addition for 40 mins and further stimulated with nigericin for 40 mins by ELISA method; assay type: cell-based
Mus musculus [24] = assay: Anti-colitis activity against DSS-induced ulcerative colitis C57BL/6 mouse model assessed as alleviation of goblet cell depletion at 15 to 30 mg/kg, ip administered daily and measured after 10 days by H and E staining based analysis; assay type: functional, organism-based; conditions: dose 15-30 mg/kg, time 10.0 day
THP-1 [25] = assay: Inhibition of NLRP3-ASC interaction in LPS/nigericin stimulated human THP-1 cells at 1 uM preincubated with LPS for 3 hrs followed by compound addition for 40 mins and further stimulated with nigericin for 40 mins by immunoprecipitation analysis; assay type: cell-based; conditions: time 80.0 min
[26] = molecular target: Voltage-gated inwardly rectifying potassium channel KCNH2 (Homo sapiens, UniProt Q12809); assay: Inhibition of human ERG expressed in HEK293 cells; assay type: toxicity, cell-based
Mus musculus [27] = assay: Anti-colitis activity against DSS-induced ulcerative colitis C57BL/6 mouse model assessed as reduction in TNF-alpha level at 15 to 30 mg/kg, ip by ELISA method; assay type: functional, organism-based; conditions: dose 15-30 mg/kg
Mus musculus [28] = assay: Anti-colitis activity against DSS-induced ulcerative colitis C57BL/6 mouse model assessed as reduction in colon length shortening at 15 to 30 mg/kg, ip administered daily and measured upto 10 days; assay type: functional, organism-based; conditions: dose 15-30 mg/kg, time <= 10.0 day
[29] = molecular target: Histamine H1 receptor (Homo sapiens) (UniProt P35367); assay: Inhibition of Histamine H1 receptor (unknown origin) at 1 uM relative to control
[30] = molecular target: Androgen receptor (Homo sapiens) (UniProt P10275); assay: Activation of Androgen receptor (unknown origin) at 1 uM relative to control
[31] = molecular target: 5-hydroxytryptamine receptor 7 (Homo sapiens) (UniProt P34969); assay: Activation of 5-HT7 receptor (unknown origin) at 1 uM relative to control
[32] = molecular target: Mu-type opioid receptor (Homo sapiens) (UniProt P35372); assay: Activation of mu opioid receptor (unknown origin) at 1 uM relative to control
Mus musculus [33] = assay: Anti-colitis activity against DSS-induced ulcerative colitis C57BL/6 mouse model assessed as alleviation of mucosal damage in colon at 15 to 30 mg/kg, ip administered daily and measured after 10 days by H and E staining based analysis; assay type: functional, organism-based; conditions: dose 15-30 mg/kg, time 10.0 day

NACHT, LRR and PYD domains-containing protein 3 (Mus musculus), sequence (Q8R4B8 whole entry, the tested form may be a part): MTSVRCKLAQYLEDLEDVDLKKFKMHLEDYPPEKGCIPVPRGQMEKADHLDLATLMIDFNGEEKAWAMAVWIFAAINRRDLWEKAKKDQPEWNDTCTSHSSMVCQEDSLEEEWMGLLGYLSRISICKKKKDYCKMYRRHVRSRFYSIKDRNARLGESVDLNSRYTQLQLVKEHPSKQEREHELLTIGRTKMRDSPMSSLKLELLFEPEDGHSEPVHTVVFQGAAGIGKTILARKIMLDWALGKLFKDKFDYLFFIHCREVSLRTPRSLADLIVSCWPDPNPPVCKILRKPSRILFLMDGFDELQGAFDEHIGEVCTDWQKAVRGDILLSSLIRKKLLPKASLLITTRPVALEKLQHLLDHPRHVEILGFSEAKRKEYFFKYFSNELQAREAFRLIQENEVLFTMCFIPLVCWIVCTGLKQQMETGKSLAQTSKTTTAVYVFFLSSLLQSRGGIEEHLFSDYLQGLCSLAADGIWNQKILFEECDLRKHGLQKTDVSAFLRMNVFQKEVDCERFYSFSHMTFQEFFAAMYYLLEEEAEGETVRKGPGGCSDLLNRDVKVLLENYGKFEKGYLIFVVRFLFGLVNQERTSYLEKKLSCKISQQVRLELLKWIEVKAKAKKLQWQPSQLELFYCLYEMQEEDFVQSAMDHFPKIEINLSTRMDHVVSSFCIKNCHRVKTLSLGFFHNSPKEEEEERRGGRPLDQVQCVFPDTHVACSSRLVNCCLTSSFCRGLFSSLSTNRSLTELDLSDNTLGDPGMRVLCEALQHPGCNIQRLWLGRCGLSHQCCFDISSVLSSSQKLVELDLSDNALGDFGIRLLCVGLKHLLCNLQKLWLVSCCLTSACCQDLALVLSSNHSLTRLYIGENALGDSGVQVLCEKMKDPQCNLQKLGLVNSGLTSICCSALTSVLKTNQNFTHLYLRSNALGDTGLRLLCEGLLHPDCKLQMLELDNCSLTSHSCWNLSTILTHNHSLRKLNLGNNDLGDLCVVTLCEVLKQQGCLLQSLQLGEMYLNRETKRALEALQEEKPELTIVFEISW
Sodium-dependent serotonin transporter (Homo sapiens), sequence (P31645 whole entry, looked up): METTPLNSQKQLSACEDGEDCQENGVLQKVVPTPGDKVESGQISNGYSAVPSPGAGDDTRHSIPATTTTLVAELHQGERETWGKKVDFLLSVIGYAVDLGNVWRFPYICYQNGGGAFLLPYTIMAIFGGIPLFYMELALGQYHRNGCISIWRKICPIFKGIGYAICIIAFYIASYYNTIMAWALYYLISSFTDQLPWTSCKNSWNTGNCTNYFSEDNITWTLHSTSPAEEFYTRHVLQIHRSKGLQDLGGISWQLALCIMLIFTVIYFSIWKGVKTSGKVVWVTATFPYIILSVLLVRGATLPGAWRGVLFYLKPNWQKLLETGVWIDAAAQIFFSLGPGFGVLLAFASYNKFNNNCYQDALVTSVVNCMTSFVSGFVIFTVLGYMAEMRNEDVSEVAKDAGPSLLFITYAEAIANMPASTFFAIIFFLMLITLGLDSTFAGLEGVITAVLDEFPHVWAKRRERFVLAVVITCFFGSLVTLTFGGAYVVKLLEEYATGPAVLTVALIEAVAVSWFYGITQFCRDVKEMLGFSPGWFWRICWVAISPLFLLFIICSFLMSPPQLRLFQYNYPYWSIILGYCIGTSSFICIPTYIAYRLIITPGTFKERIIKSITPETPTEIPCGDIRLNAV
Prostaglandin G/H synthase 2 (Homo sapiens), sequence (P35354 whole entry, the tested form may be a part): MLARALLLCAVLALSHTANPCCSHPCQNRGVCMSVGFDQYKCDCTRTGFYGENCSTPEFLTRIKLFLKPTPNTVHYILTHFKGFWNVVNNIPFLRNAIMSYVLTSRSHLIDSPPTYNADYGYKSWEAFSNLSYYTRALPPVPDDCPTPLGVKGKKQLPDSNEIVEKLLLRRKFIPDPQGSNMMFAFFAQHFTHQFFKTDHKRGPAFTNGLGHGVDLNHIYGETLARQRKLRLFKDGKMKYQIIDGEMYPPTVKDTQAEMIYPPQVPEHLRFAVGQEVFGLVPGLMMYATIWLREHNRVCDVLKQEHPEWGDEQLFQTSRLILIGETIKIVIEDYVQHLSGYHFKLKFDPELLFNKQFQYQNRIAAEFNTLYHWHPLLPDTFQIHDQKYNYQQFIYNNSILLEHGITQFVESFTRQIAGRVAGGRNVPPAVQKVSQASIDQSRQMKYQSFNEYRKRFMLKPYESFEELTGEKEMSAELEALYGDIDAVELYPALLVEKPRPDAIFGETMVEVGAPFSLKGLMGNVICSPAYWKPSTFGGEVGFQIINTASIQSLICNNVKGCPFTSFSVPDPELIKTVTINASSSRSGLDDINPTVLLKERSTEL
5-hydroxytryptamine receptor 7 (Homo sapiens), sequence (P34969 whole entry): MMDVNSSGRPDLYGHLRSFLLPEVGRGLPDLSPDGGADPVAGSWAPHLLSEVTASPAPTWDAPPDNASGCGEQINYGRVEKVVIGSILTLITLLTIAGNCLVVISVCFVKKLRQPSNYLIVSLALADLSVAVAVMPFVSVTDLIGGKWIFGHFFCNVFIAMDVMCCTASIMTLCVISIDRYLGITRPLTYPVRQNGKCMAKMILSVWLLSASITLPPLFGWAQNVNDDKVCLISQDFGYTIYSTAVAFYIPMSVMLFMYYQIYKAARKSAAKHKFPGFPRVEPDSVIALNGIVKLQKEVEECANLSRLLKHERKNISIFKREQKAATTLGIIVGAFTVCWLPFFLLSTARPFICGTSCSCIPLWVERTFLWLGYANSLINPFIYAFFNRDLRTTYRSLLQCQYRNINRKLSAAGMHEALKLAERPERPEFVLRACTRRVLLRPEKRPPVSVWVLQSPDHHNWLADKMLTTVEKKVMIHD
Mu-type opioid receptor (Homo sapiens), sequence (P35372 whole entry): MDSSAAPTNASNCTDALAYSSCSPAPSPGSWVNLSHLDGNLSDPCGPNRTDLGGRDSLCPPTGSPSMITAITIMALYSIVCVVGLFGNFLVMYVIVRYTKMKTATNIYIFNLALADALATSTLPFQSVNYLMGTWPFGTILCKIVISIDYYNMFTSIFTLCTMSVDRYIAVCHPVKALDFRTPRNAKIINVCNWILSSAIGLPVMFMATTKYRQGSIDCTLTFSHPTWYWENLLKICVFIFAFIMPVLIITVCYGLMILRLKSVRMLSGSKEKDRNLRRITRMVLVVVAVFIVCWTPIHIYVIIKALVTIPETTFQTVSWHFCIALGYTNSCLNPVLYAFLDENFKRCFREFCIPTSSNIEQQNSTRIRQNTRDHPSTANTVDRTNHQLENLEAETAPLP
Adenosine receptor A2a (Homo sapiens), sequence (P29274 whole entry): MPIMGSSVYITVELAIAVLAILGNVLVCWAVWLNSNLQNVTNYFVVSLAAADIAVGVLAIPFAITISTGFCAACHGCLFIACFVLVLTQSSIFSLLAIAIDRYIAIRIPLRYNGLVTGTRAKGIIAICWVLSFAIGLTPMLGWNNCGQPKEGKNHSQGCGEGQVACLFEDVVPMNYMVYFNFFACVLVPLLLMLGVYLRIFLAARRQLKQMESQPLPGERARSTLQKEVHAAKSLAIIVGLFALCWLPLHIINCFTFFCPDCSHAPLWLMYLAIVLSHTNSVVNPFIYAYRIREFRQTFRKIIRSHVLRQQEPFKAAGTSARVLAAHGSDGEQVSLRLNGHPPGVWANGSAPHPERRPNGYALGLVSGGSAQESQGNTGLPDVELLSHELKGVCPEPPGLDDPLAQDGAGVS
Voltage-gated inwardly rectifying potassium channel KCNH2, sequence (Q12809 whole entry): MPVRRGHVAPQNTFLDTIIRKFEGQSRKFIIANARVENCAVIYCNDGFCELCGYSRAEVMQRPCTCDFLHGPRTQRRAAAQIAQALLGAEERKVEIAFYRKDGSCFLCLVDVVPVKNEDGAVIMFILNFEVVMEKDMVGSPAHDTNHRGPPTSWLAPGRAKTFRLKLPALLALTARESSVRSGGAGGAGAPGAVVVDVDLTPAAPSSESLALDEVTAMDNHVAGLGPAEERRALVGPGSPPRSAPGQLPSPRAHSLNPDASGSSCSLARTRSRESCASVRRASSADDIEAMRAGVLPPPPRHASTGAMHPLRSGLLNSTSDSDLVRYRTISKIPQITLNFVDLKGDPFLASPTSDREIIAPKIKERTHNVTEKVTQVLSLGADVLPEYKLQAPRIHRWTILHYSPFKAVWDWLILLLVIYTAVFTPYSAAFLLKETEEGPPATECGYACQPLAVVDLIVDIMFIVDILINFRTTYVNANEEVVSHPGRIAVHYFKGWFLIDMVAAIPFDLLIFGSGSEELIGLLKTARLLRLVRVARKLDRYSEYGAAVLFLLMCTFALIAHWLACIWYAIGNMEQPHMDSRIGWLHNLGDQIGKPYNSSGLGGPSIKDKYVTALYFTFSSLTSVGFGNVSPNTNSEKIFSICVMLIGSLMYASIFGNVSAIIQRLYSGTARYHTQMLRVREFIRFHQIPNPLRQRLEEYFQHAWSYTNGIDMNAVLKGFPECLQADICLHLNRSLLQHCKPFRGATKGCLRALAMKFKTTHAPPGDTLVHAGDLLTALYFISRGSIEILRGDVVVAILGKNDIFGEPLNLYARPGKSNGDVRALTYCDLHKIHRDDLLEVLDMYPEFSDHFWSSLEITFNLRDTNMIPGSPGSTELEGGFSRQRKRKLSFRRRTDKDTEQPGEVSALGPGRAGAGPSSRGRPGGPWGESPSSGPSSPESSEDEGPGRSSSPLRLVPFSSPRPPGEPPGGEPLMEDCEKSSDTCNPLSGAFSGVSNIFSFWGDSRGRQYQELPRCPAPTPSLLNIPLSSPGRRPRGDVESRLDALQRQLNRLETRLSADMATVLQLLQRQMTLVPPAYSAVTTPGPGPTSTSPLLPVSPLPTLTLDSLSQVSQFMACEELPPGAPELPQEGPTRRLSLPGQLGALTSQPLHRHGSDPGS
NACHT, LRR and PYD domains-containing protein 3, sequence (Q8R4B8 whole entry, the tested form may be a part): as the sequence (Q8R4B8 whole entry, the tested form may be a part) above

**Q.** With `C=C1C(=O)O[C@@H]2C[C@@]3(C)CC[C@@H](OC(=O)c4cnc(Cl)cc4Cl)C(=C)[C@@H]3C[C@H]12` as the molecule, how does the AUC(0-t) at 24 h [1] read?
**A.** Its AUC(0-t) at 24 h is 0.0168 µg·h/mL.

**Q.** And the inhibition (THP-1 [2])?
**A.** Its inhibition is “Active”.

**Q.** And the Activity (THP-1 [3])?
**A.** Its Activity is “Active”.

**Q.** What about the Activity [4] of the same molecule?
**A.** The Activity was under 50%.

**Q.** And the Activity (THP-1 [5])?
**A.** The Activity was “inactive”.

**Q.** What about the inhibition [6] of the same molecule?
**A.** The inhibition was under 50%.

**Q.** What about the Activity (Mus musculus [7]) of the same molecule?
**A.** Its Activity is “Active”.

**Q.** What about the inhibition (Homo sapiens [8]) of the same molecule?
**A.** Its inhibition is under 50%.

**Q.** What about the concentration at 8 h [9] of the same molecule?
**A.** The concentration at 8 h was 1.52 ng/mL.

**Q.** And the Activity [10]?
**A.** Its Activity is “inactive”.

**Q.** What about the Activity [11] of the same molecule?
**A.** Its Activity is under 50%.

**Q.** What about the concentration at 0.5 h [12] of the same molecule?
**A.** Its concentration at 0.5 h is 12900 ng/g.

**Q.** What about the inhibition (HEK293T) of the same molecule?
**A.** Its inhibition is “inactive”.

**Q.** What about the inhibition (BMDM [13]) of the same molecule?
**A.** Its inhibition is “Active”.

**Q.** And the inhibition [14]?
**A.** The inhibition was “Active”.

**Q.** What about the Activity [15] of the same molecule?
**A.** Its Activity is under 50%.

**Q.** And the concentration at 2 h [16]?
**A.** The concentration at 2 h was 4610 ng/g.

**Q.** What about the MRT last at 24 h [17] of the same molecule?
**A.** The MRT last at 24 h was 11 h.

**Q.** And the Activity [18]?
**A.** The Activity was “Non-Toxic”.

**Q.** And the Activity (Homo sapiens [19])?
**A.** The Activity was under 50%.

**Q.** What about the inhibition [20] of the same molecule?
**A.** Its inhibition is under 50%.

**Q.** What about the inhibition [21] of the same molecule?
**A.** The inhibition was “Dose-Dependent Effect”.

**Q.** And the Activity (BMDM [22])?
**A.** Its Activity is “Non-Toxic”.

**Q.** What about the IC50 [23] of the same molecule?
**A.** Its IC50 is 0.739 µM.

**Q.** What about the Activity (Mus musculus [24]) of the same molecule?
**A.** Its Activity is “Active”.

**Q.** What about the inhibition (THP-1 [25]) of the same molecule?
**A.** Its inhibition is “Active”.

**Q.** And the IC50 [26]?
**A.** Its IC50 is 10.6 µM.

**Q.** What about the Activity (Mus musculus [27]) of the same molecule?
**A.** The Activity was “Active”.

**Q.** What about the Activity (Mus musculus [28]) of the same molecule?
**A.** Its Activity is “Active”.

**Q.** And the inhibition [29]?
**A.** The inhibition was under 50%.

**Q.** And the Activity [30]?
**A.** The Activity was under 50%.

**Q.** And the Activity [31]?
**A.** Its Activity is under 50%.

**Q.** What about the Activity [32] of the same molecule?
**A.** The Activity was under 50%.

**Q.** And the Activity (Mus musculus [33])?
**A.** The Activity was “Active”.
